Experimental data as given in patent publication US6248747A, “5-(heterocyclic alkyl)-6-aryl-dihydropyrimidines” (Synaptic Pharmaceutical Corporation, priority 1999, dated 2001).
Where two headings read alike, the source gives them in different places.

Key:
[1] = system: benign prostatic hyperplasia (BPH); conditions: literature report (phenoxybenzamine: M. Caine et al. 1976); cited from earlier work
[2] = cited from earlier work
[3] = biological target: T1, cloned human α1a receptor (Homo sapiens, UniProt P25100); test: Radioligand binding affinity at cloned human α1a receptor ([3H]prazosin); conditions: LM(tk-) cell membranes, SEM and n
T1 construct: The entire coding region of α1A (1719 bp); expressed in transfected cells; host or cells: LM(tk-) cells, membranes
T1 sequence (P25100 1-572): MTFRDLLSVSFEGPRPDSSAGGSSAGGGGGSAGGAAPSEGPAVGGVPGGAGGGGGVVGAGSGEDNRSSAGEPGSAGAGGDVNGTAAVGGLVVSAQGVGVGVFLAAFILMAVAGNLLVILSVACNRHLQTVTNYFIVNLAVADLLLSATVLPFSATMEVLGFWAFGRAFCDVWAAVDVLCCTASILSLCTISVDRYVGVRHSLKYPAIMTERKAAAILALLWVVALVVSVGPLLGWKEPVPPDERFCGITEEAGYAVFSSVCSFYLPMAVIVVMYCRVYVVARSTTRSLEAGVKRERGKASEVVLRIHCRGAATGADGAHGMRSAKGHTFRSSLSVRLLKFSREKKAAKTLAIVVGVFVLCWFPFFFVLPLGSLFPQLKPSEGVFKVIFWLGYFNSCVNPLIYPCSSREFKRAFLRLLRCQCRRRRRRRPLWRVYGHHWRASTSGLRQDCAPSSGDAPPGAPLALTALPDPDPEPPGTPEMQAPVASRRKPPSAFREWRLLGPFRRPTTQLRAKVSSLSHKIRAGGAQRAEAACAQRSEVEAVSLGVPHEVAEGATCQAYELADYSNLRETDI
Procedure: (§1) The protocols for these experiments are given below.
(§2) These cell lines were prepared by transfecting the cloned cDNA or cloned genomic DNA or constructs containing both genomic DNA and cDNA encoding the human α-adrenergic receptors as follows:
(§3) Radioligand Binding Assays: Transfected cells from culture flasks were scraped into 5 ml of 5 mM Tris-HCl, 5 mM EDTA, pH 7.5, and lysed by sonication. The cell lysates were centrifuged at 1000 rpm for 5 min at 4° C., and the supernatant was centrifuged at 30,000×g for 20 min at 4° C. The pellet was suspended in 50 mM Tris-HCl, 1 mM MgCl2, and 0.1% ascorbic acid at pH 7.5. […] Nonspecific binding was determined in the presence of 10 μM phentolamine. The reaction was stopped by filtration through GF/B filters using a cell harvester.

[4] = biological target: T2, cloned human α1c receptor (Homo sapiens, UniProt P35348); test: Radioligand binding affinity at cloned human α1c receptor ([3H]prazosin); conditions: LM(tk-) cell membranes, SEM and n
T2 construct: The entire coding region of α1C (1401 bp); expressed in transfected cells; host or cells: LM(tk-) cells, membranes; vector EXJ.RH (derived from pCEXV-3)
T2 sequence (P35348 1-466): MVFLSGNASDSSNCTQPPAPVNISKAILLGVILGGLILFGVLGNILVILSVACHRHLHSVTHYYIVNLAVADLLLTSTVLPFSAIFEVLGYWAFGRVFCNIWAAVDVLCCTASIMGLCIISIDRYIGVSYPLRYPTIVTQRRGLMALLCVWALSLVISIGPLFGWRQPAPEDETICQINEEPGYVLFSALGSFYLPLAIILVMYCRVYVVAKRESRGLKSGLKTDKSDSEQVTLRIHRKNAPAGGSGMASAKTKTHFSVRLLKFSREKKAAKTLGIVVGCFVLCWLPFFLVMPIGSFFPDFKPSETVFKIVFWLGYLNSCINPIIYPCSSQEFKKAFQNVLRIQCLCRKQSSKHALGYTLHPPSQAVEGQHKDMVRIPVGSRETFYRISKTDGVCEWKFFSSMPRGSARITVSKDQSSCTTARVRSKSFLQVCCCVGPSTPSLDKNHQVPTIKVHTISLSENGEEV
Procedure: as §1, §2
The construct involved ligating three partial overlapping fragments: a 5' 0.6 kb HincII genomic clone, a central 1.8 EcoRI hippocampal cDNA clone, and a 3' 0.6 Kb PstI genomic clone. The hippocampal cDNA fragment overlaps with the 5' and 3' genomic clones so that the HincII and PstI sites at the 5' and 3' ends of the cDNA clone, respectively, were utilized for ligation. This full-length clone was cloned into the KpnI site of the expression vector, using the 5' and 3' KpnI sites of the fragment, derived from vector (i.e., pBluescript) and 3'-untranslated sequences, respectively. Stable cell lines were selected as described above.
as §3, with “The reaction was stopped by filtration through GF/B filters using a cell harvester.” left out

[5] = biological target: T3, cloned human α1b receptor (Homo sapiens, UniProt P35368); test: Radioligand binding affinity at cloned human α1b receptor ([3H]prazosin); conditions: LM(tk-) cell membranes, SEM and n
T3 construct: The entire coding region of α1B (1563 bp); expressed in transfected cells; host or cells: LM(tk-) cells, membranes; vector pCEXV-3
T3 sequence (P35368 1-520): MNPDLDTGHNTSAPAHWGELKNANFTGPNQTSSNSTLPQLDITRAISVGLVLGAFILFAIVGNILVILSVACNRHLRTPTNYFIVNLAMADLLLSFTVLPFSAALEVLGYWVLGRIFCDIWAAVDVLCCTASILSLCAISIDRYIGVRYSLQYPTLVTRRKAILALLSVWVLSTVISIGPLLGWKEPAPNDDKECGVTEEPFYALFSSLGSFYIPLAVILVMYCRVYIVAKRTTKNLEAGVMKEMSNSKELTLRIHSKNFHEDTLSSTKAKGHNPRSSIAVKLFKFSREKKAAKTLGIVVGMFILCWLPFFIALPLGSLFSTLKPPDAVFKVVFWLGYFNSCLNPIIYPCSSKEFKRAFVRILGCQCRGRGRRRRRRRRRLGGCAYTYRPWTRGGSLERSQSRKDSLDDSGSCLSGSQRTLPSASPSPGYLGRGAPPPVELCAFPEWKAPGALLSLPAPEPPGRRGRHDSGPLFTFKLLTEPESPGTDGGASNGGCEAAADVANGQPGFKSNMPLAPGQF
Procedure: as §1, §2
The construct involved ligating the full-length containing EcoRI brainstem cDNA fragment from λ ZapII into the expression vector. Stable cell lines were selected as described above.
as §3

Row | SMILES | usefulness in treating BPH [1] | side effects ([2]; background statement) | also measured
1 | COc1cc2nc(N3CCN(C(=O)c4ccco4)CC3)nc(N)c2cc1OC [prazosin] | useful for treating BPH |  | side effects ([2]; in vivo): untoward side effects
2 | COc1cc2nc(N3CCN(C(=O)C4CCCO4)CC3)nc(N)c2cc1OC (stereo not shown) [terazosin] | useful for treating BPH | untoward side effects | 
3 | Clc1cccc(Cl)c1N=C1NCCN1 [clonidine] |  | dry mouth and sedation | 
4 | CC(COc1ccccc1)N(CCCl)Cc1ccccc1 (stereo not shown) [phenoxybenzamine] | useful in relieving the symptoms of BPH | significant side effects such as dizziness and asthenia | 
5 | CCC1=C(C(N)=O)C(c2ccc(F)c(F)c2)N(C(=O)NCCCN2CCC(C(=O)OC)(c3ccccc3)CC2)C(=O)N1 (single isomer, unassigned; (+)) [Example 20, (+)-5-Carboxamido-6-(3,4-difluorophenyl)-4-ethyl-1-{N-[3-(4-methoxycarbonyl-4-phenylpiperidin-1-yl)propyl]}carboxamido-2-oxo-1,2,3,6-tetrhydropyrimidine] |  |  | hα1a pKi [3]: 6.46; hα1c pKi [4]: 9.68; hα1b pKi [5]: 6.59
